Measurements: US20120101110A1, “Diaza-spiro[5.5]undecanes” (priority 2010, published 2012)
pKd, pKi: −log10 of the molar value.

Key:
human orexin 2 receptors [1] = target: T1, human orexin 2 receptors (Homo sapiens, UniProt O43614); assay: Calcium accumulation in cells (FLIPR), hOx2R; type: cell-based; details: cells expressing human orexin 2 receptor; inhibition of orexin A-induced calcium accumulation; Cheng and Prusoff correction
T1 sequence (O43614 1-444): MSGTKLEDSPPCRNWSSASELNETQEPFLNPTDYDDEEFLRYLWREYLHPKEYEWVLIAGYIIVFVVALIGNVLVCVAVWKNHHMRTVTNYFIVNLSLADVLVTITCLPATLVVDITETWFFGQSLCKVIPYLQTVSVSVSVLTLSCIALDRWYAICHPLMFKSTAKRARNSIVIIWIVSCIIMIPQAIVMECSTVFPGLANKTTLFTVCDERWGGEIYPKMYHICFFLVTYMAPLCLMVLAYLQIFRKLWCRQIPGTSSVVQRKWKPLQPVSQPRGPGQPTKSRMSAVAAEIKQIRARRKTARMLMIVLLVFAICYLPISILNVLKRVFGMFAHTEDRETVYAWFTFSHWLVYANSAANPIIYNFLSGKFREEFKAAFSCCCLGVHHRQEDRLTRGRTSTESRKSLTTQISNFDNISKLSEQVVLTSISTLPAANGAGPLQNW
Experimental: (§1) Cells expressing human orexin 1 or human orexin 2 receptors, were seeded at 8,000 cells/well in 384 well black-walled clear bottom, poly-D-lysine coated plates. After 24 h, the medium was removed and cells were washed once with phosphate buffered saline and serum-deprived overnight in assay buffer (130 mM NaCl, 5.4 mM KCl, 1.8 mM CaCl2, 0.8 mM MgSO4, 0.9 mM NaH2PO4, 25 mM glucose, 20 mM HEPES, pH 7.4) containing bovine serum albumin (1% w/v).
On the day of the experiment, the cells seeded in black plates were treated with assay buffer containing the Ca^2+sensitive fluorescent dye Fluo-4-AM (2 μM), and probenecid (0.1 mM). After 1 h plates were washed twice with, and resuspended in, assay buffer containing probenecid (0.1 mM) using a multi plate washer. […] Fluorescence measurements were then continued every 1 S for 120 S followed by every 4 S for 240 S.
The measurements were typically made in two sequences:
(§2) Compounds of formula I were tested usually in a concentration range from 10^−9 M to 10^−5 M. In the second round, performed one hour later (to allow for equilibration), Orexin A was tested either in the absence (calibration curves, Orexin A agonist controls) or in the presence of compounds of formula I to determine antagonism.

human orexin 2 receptors [2] = target: T1, human orexin 2 receptors; assay: Radioligand binding assay ([3H]-SB649868 competition), hOx2R; details: competition with about 1 nM [3H]-SB649868; CHO or HEK cell membranes expressing human orexin 2 receptor; read-out: binding hOx2R Kd
How it was run: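 Membranes were incubated 1 h at room temperature in 10 mM HEPES pH 7.5 with 0.5% BSA, 5 mM MgCl2, 1 mM CaCl2 and 0.05% Tween, with about 1 nM [3H]-SB649868 and test compounds in triplicate. Non-specific binding was defined with 10 μM almorexant, and bound radioactivity was counted.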

human orexin 1 receptors [3] = target: T2, human orexin 1 receptors (Homo sapiens, UniProt O43613); assay: Radioligand binding assay ([3H]-SB649868 competition), hOx1R; details: competition with about 1 nM [3H]-SB649868; CHO or HEK cell membranes expressing human orexin 1 receptor
T2 sequence (O43613 1-425): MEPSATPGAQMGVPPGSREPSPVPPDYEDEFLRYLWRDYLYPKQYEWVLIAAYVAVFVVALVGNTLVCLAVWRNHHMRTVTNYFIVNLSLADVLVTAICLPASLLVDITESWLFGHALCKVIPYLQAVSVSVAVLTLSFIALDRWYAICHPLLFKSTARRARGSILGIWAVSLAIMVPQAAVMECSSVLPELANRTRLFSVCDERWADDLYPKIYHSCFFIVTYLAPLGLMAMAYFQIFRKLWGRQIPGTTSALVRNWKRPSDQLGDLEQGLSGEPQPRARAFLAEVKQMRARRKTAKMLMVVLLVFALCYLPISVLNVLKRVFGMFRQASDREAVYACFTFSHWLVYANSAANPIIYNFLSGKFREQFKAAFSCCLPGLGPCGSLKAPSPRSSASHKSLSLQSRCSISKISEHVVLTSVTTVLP
How it was run: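 Membranes from hOx1R-expressing cells incubated 1 h at room temperature with about 1 nM [3H]-SB649868 and test compound, in triplicate. Buffer was 10 mM HEPES pH 7.5, 0.5% BSA, 5 mM MgCl2, 1 mM CaCl2, 0.05% tween; 10 μM almorexant defined non-specific binding. Filtration then counting of bound radioactivity; values reported as Kd.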

human orexin 1 receptors [4] = target: T2, human orexin 1 receptors; assay: Calcium accumulation in cells (FLIPR), hOx1R; details: for inhibition at 10 µM: read-out: FLIPR hOx1R % inhibition value
Experimental: as §1
On the day of the experiment, the cells seeded in black plates were treated with assay buffer containing the Ca^2+sensitive fluorescent dye Fluo-4-AM (2 μM), and probenecid (0.1 mM). After 1 h plates were washed twice with, and resuspended in, assay buffer containing probenecid (0.1 mM) using a multi plate washer. The plates were placed into a FLIPR II (Fluorometric Imaging Plate Reader, Molecular Devices, Sunnyvale, Calif., USA) and baseline fluorescence (fluorescence light units, FLU) was measured (5 measurements, 2 S each; laser excitation 488 nm at 0.6-1 W, CCD camera exposure 0.4 s) before addition of buffer alone (basal) or containing test compounds (either compound of formula I alone, agonist alone or agonist in the presence of various concentrations of compounds of formula I). Fluorescence measurements were then continued every 1 S for 120 S followed by every 4 S for 240 S.
as §2
Inhibition data is expressed in Table 2 as Ki [μM], converted by the Cheng and Prusoff correction (Ki=IC50/1+(L/EC50)), where IC50 is the 50% inhibition value determined in concentration response inhibition curves, EC50 is the half maximal activation concentration determined for orexin A in concentration response curves and L is the concentration of orexin A used in inhibition experiments performed in with a submaximal concentration of orexin A in the presence of up to 8 increasing concentrations of compound of formula I. Inhibition data is also expressed in Table 2 as % inhibition value measured at a concentration of 10 μM of selected compounds of formula I.

| Structure (SMILES) | pKi (human orexin 2 receptors [1]) | pKd (human orexin 2 receptors [2]) | pKd (human orexin 1 receptors [3]) | pKi (human orexin 1 receptors [4]) | inhibition at 10 µM (human orexin 1 receptors [4]) [%] |
| --- | --- | --- | --- | --- | --- |
| COc1cc(OC)nc(N2CCC3(CCCN(Cc4c[nH]c5ccccc45)C3=O)CC2)n1 [Example 88, 2-((1H-indol-3-yl)methyl)-9-(4,6-dimethoxypyrimidin-2-yl)-2,9-diazaspiro[5.5]undecan-1-one] | 7.34 | 6.21 | 5.30 | 6.39 |  |
| COc1cccc(-c2sc(C)nc2CN2CCCC3(CCN(c4nc(C)cc(C)n4)CC3)C2=O)c1 [Example 110, 9-(4,6-dimethylpyrimidin-2-yl)-2-((5-(3-methoxyphenyl)-2-methylthiazol-4-yl)methyl)-2,9-diazaspiro[5.5]undecan-1-one] | 8.42 | 8.15 | 6.63 | 6.67 |  |
| Cc1cc(C#N)cc(N2CCC3(CCCN(Cc4cccc(-c5ncc(C)o5)c4)C3=O)CC2)n1 [Example 29, 2-methyl-6-(2-(3-(5-methyloxazol-2-yl)benzyl)-1-oxo-2,9-diazaspiro[5.5]undecan-9-yl)isonicotinonitrile] | 7.55 | 7.00 | 6.04 | 6.45 |  |
| Cc1cc(C)nc(N2CCC3(CCCN(Cc4cccc(-c5ncccn5)c4)C3=O)CC2)n1 [Example 31, 9-(4,6-dimethylpyrimidin-2-yl)-2-(3-(pyrimidin-2-yl)benzyl)-2,9-diazaspiro[5.5]undecan-1-one] | 7.04 | 6.84 | 5.42 | 5.79 |  |
| Cc1cc(C)nc(N2CCC3(CCCN(Cc4cn(C)c5ccccc45)C3=O)CC2)n1 [Example 6, 9-(4,6-dimethylpyrimidin-2-yl)-2-((1-methyl-1H-indol-3-yl)methyl)-2,9-diazaspiro[5.5]undecan-1-one] | 7.59 | 6.82 | 5.34 | 5.82 |  |
| N#Cc1ccnc(N2CCC3(CCCN(Cc4cccc(-c5ncccn5)c4)C3=O)CC2)n1 [Example 33, 2-(1-oxo-2-(3-(pyrimidin-2-yl)benzyl)-2,9-diazaspiro[5.5]undecan-9-yl)pyrimidine-4-carbonitrile] | 7.43 | 6.66 | 6.13 | 6.32 |  |
| N#Cc1ccnc(N2CCC3(CCCN(Cc4cccc(-c5ncccn5)c4)C3=O)CC2)c1 [Example 35, 2-(1-oxo-2-(3-(pyrimidin-2-yl)benzyl)-2,9-diazaspiro[5.5]undecan-9-yl)isonicotinonitrile] | 7.35 | 7.01 | 6.40 | 6.06 |  |
| O=C1CCCC2(CCN(c3cncc(Cl)n3)CC2)N1Cc1cccc2[nH]ccc12 [Example 44, 1-((1H-indol-4-yl)methyl)-9-(6-chloropyrazin-2-yl)-1,9-diazaspiro[5.5]undecan-2-one] | 7.92 | 6.62 | 5.24 | 5.80 |  |
| Cc1cc(N(C)C)nc(N2CCC3(CCCN(Cc4c[nH]c5ccccc45)C3=O)CC2)n1 [Example 113, 2-((1H-indol-3-yl)methyl)-9-(4-(dimethylamino)-6-methylpyrimidin-2-yl)-2,9-diazaspiro[5.5]undecan-1-one] | 7.68 | 7.55 | 6.41 | 5.84 |  |
| N#Cc1ccnc(N2CCC3(CCCN(Cc4c[nH]c5ccccc45)C3=O)CC2)c1 [Example 10, 2-(2-((1H-indol-3-yl)methyl)-1-oxo-2,9-diazaspiro[5.5]undecan-9-yl)isonicotinonitrile] | 7.70 | 6.94 | 5.76 | 5.93 |  |
| Cc1ccnc(N2CCC3(CCCN(Cc4c[nH]c5ccccc45)C3=O)CC2)c1 [Example 67, 2-((1H-indol-3-yl)methyl)-9-(4-methylpyridin-2-yl)-2,9-diazaspiro[5.5]undecan-1-one] | 6.87 | 6.50 | 5.45 |  | < 10 |
| COc1cccc(N2CCC3(CCCN(Cc4c[nH]c5ccccc45)C3=O)CC2)n1 [Example 65, 2-((1H-indol-3-yl)methyl)-9-(6-methoxypyridin-2-yl)-2,9-diazaspiro[5.5]undecan-1-one] | 7.18 | 6.23 | < 5.00 | 6.16 |  |
| Cc1cc(C)nc(N2CCC3(CCCN(Cc4nn(C)cc4-c4ccccc4)C3=O)CC2)n1 [Example 107, 9-(4,6-dimethylpyrimidin-2-yl)-2-((1-methyl-4-phenyl-1H-pyrazol-3-yl)methyl)-2,9-diazaspiro[5.5]undecan-1-one] | 7.70 | 6.78 | 5.65 | 6.08 |  |
| Cc1cncc(N2CCC3(CCCC(=O)N3Cc3cccc4[nH]ccc34)CC2)n1 [Example 41, 1-((1H-indol-4-yl)methyl)-9-(6-methylpyrazin-2-yl)-1,9-diazaspiro[5.5]undecan-2-one] | 7.82 | 7.07 | 5.55 | 5.78 |  |
| COc1cccc(-c2nn(C)nc2CN2CCCC3(CCN(c4nc(C)cc(C)n4)CC3)C2=O)n1 [Example 120, 9-(4,6-dimethylpyrimidin-2-yl)-2-((5-(6-methoxypyridin-2-yl)-2-methyl-2H-1,2,3-triazol-4-yl)methyl)-2,9-diazaspiro[5.5]undecan-1-one] | 7.49 | 6.71 | < 5.00 |  | 29 |
| Cc1nc(N2CCC3(CCCN(Cc4c[nH]c5ccccc45)C3=O)CC2)ncc1F [Example 102, 2-((1H-indol-3-yl)methyl)-9-(5-fluoro-4-methylpyrimidin-2-yl)-2,9-diazaspiro[5.5]undecan-1-one] | 7.40 | 7.23 | 5.94 | 5.97 |  |
| Cc1cc(C#N)nc(N2CCC3(CCCN(Cc4cccc(-c5ncc(C)o5)c4)C3=O)CC2)n1 [Example 37, 6-methyl-2-(2-(3-(5-methyloxazol-2-yl)benzyl)-1-oxo-2,9-diazaspiro[5.5]undecan-9-yl)pyrimidine-4-carbonitrile] | 7.10 | 5.94 | < 5.00 | 5.72 |  |
| COc1cc(C)nc(N2CCC3(CCCN(Cc4n[nH]c5ccccc45)C3=O)CC2)n1 [Example 112, 2-((1H-indazol-3-yl)methyl)-9-(4-methoxy-6-methylpyrimidin-2-yl)-2,9-diazaspiro[5.5]undecan-1-one] | 8.21 | 7.09 | 6.04 | 6.59 |  |
| Cc1cc(C#N)cc(N2CCC3(CCCN(Cc4c[nH]c5ccccc45)C3=O)CC2)n1 [Example 78, 2-(2-((1H-indol-3-yl)methyl)-1-oxo-2,9-diazaspiro[5.5]undecan-9-yl)-6-methylisonicotinonitrile] | 8.52 | 6.67 | 5.47 | 6.32 |  |
| N#Cc1cccc(N2CCC3(CCCC(=O)N3Cc3cccc4[nH]ccc34)CC2)n1 [Example 92, 6-(1-((1H-indol-4-yl)methyl)-2-oxo-1,9-diazaspiro[5.5]undecan-9-yl)picolinonitrile] | 6.98 | 5.94 | < 5.00 | 5.59 |  |
| Cc1cc(C)nc(N2CCC3(CCCN(Cc4ccccc4-c4ccco4)C3=O)CC2)n1 [Example 15, 9-(4,6-dimethylpyrimidin-2-yl)-2-(2-(furan-2-yl)benzyl)-2,9-diazaspiro[5.5]undecan-1-one] | 7.89 | 6.96 | 5.55 | 6.07 |  |
| Cc1cc(C)nc(N2CCC3(CCCN(Cc4c[nH]c5ccccc45)C3=O)CC2)n1 [Example 5, 2-((1H-indol-3-yl)methyl)-9-(4,6-dimethylpyrimidin-2-yl)-2,9-diazaspiro[5.5]undecan-1-one] | 8.00 | 7.46 | 6.02 | 6.06 |  |
| Cc1cncc(N2CCC3(CCCN(Cc4c[nH]c5ccccc45)C3=O)CC2)n1 [Example 11, 2-((1H-indol-3-yl)methyl)-9-(6-methylpyrazin-2-yl)-2,9-diazaspiro[5.5]undecan-1-one] | 7.64 | 6.61 | 5.18 | 5.86 |  |
